The source of these data is US5273989A, “3,5-disubstituted 2-isoxazolines and isoxazoles, agents containing them and their use” (Hoechst Aktiengesellschaft, priority 1990, dated 1993).

Counter-ions that a name gives are not always drawn. Like-named read-outs stand apart in the source and are kept apart here.

The test system of series [1] is NMDA-stimulated 3H-acetylcholine release, striatum sections. As to the kind of experiment: Inhibition of NMDA-stimulated 3H-acetylcholine release from striatum sections of the rat brain. It is filed as cell-based. Here is the method: 2. Inhibition of ^3 H-acetylcholine release from striatum sections of the rat brain
Test principle: For the test, fresh striatum sections from rat brain were rinsed with buffer solution in a special chamber and the release of the tritium-labeled acetylcholine was measured after stimulation with NMDA. Preparations having NMDA-antagonist action inhibit acetylcholine release.
Experimental protocol: The superfusion experiments were carried out by the method of Wichman et al. (Naunyn-Schmied. Arch. Pharmacol., 338 (1988), 623-631). Rat brain sections, 0.5 mm thick, were preincubated for 30 min in 2 ml of incubation medium which contains 0.1 μmol/l of ^3 H-choline having a specific activity of 80 Ci/mmol. In each of 6 superfusion chambers, a section was transferred and superfused for 90 min at a rate of 1.5 ml/min. 2 min fraction of the superfusate were continuously collected. Each section was superfused twice with 25 μmol/l of NMDA of two minutes each time in order to stimulate the release of acetylcholine. The first stimulus (S1) takes place between the 54th and the 56th minute and the 2nd stimulus (S2) between the 76th and 78th minute. The incubation medium contained, in mmol/l: NaCl 118, KCl 4.8, CaCl2 1.2, MgSO4 1.2, NaHCO3 25, KH2 PO4 1.2 and glucose 10. The medium was saturated with Carbogen at 37° C. The pH was adjusted to 7.4 NMDA and the novel preparations to be tested were dissolved in superfusion medium. The superfusion was carried out using Mg^2+ -free medium. Tritium from the dissolved sections and from the superfusate was determined by liquid scintillation counting using a Packard® 1900 CA (Frankfurt) at a 50% efficiency.
Calculation of the Results
Basal release and NMDA-stimulated release for S1 and S2 were expressed in %/min of each fraction (Limberger et al, Naunyn Schmied. Arch. Pharmacol. 339 (1988), 53-61).
The value for the stimulated release S2 /S1 was calculated for the control as 0.69±0.09. The value decreases if a substance, such as, for example, the NMDA receptor antagonist CPP (3-(+)-2-carboxypiperazin-4-ylpropyl-1-phosphonic acid) known from the literature inhibited the NMDA-stimulated release. The inhibition of the stimulated release by preparations was calculated in percent, relative to the control value, and is indicated in Table 4.

For series [2], the system named is high affinity 3H-D-aspartate absorption, synaptic vesicles (synaptosomes) from rat cortex. As to the kind of experiment: "High affinity" absorption of 3H-aspartate in a vesicle preparation from rat brain. The note with it: relative to control values (100%). The class given is biochemical. The protocol: 1. "High affinity" absorption of ^3 H-aspartate in a vesicle preparation from rat brain.
Test principle: Fresh synaptic vesicles (synaptosomes) from rat cortex are incubated with buffer solution and ^3 H-D-aspartate and ^3 H-D-aspartate in the vesicles is measured. Preparations which in comparison to control synaptosomes increase the high affinity ^3 H-D-aspartate absorption and those which prevent the loss of ^3 H-D-aspartate by reliberation are regarded as particularly interesting.
Experimental protocol: The experiments for ^3 H-D-aspartate absorption were carried out by the method of Anand et al. (Biochem. Pharmacol., 35 (1986), 1055-1057). The synaptic vesicles were dissected out of cerebral cortex from male Sprague-Dawley rats. The preparations were tested at four concentrations as double samples in parallel with control samples containing buffer. The incubation medium (pH 7.4) contains: 1.2 mM KH2 PO4, 5 mM KCl, 5 mM pyruvate, 1.2 mM glucose, 1.2 mM MgCl2, 114 mM NaCl, 25 mM NaHCO3. For the non-specific ^3 H-D-aspartate absorption, NaCl was replaced by 114 mM choline chloride and NaHCO3 by 25 mM KHCO3. An aliquot of the vesicle suspension (about 25 μg/ml of test solution) was added to the test sample which was temperature controlled at 37° C. and aerated with Carbogen (5% CO2, 95% O2) and preincubated for 2 minutes. The three minutes incubation for the amino acid absorption was started by addition of 50 μl of ^3 H-D-aspartate (specific activity 25 Ci/mmol, 10 pmol/ml of test solution). The vesicles were separated from the incubation medium by filtration and additional washing of the adhering labeled amino acids using a Titertek cell harvester (Flow Laboratories, Meckenheim). The ^3 H-D-aspartate absorption was measured by means of a liquid scintillation counter (Canberra-Packard, Model 1500, Frankfurt).
The preparation activity is indicated in percent of the specific ^3 H-D-aspartate absorption, relative to control values (100%), in Table 3. Adenosine triphosphate (ATP) was used for comparison as the standard substance (see Table 3) and at 1 mM caused a 35% increase in the ^3 H-D-aspartate absorption.

Series [3] deals with CA1 pyramidal cells of the hippocampus after forebrain ischemia. Nature of the series: Neuroprotection after forebrain ischemia in the gerbil. The note with it: for Cell necroses (% change) / Behavior score (% change): 15 minutes before ischemia; for Cell necroses (% change): histopathological score CA1, treated versus control group; for Behavior score (% change): treated versus control group.
Method: A 5-minutes' ischemia of the forebrain with subsequent recirculation is produced in 20 male Mongolian gerbils under halothane anesthesia by bilateral closure of the corotid artery by means of aneurysm clips. 7 days later, the animals are decapitated under halothane anesthesia, the brains are fixed by immersion in Carnoy solution and the extent of neuron damage in the CA1 region of the hippocampus is determined "blind" with the aid of a 5-stage histopathological score. The test substance is administered intraperitoneally or orally 15 minutes before ischemia to each group of 10 gerbils. One ischemic control group, also of 10 animals, is treated with the respective solvents per test substance.

Series [4] can be described thus: Toxicity (LD50) in the mouse. Conditions: in vivo, iv. An excerpt: As the examples investigated show considerable differences in toxicity compared to the standard substances, the LD50 values are also listed in Table 6,
The subject of the next series is NMDA-induced cramps. As to the kind of experiment: Inhibition of NMDA-induced cramps in the mouse. It is filed as in vivo. The note with it: po, 1 h; for inhibition in vivo at 0.3 mg/kg: 0.3 mg/kg p.o. Here is the method: 4. Inhibition of NMDA-induced-cramps in the mouse
The examples listed below show neuroprotective activity in that they antagonize the cramps induced by NMDA (N-methyl-(D)-aspartate). To this end, intravenous injections of 20-30 mg/kg of NMDA are carried out on a male NMRI (Naval Medical Research Institute) mice of 22-24 g body weight, which leads to stereotypes, clonic cramps and in the majority of cases to mortality. In order to investigate an NMDA-antagonist activity of the test substances, they are administered orally one hour before NMDA. The animals are then observed for the abovementioned symptoms for up to 60 min. The number of animals with clonic cramps and the incidence of mortality, expressed in percent change compared to the control group, is regarded as the evaluation criterion.

Where [5] appears, read: preparation concentration 10 μM, 25 μmol/l NMDA stimulus, relative to control S2/S1, read-out: Inhibition of 3H-acetylcholine release from striatum sections, Inhibition (%).
[6] abbreviates: preparation concentration 100 μM.
Setting [7] is: read-out: Inhibition of 3H-acetylcholine release from striatum sections, Inhibition (%).
[8] abbreviates: 50 mg/kg p.o., one hour before NMDA i.v., change compared to control group, read-out: Inhibition of convulsions.
Setting [9] is: read-out: Inhibition of mortality.
[10] abbreviates: preparation concentration 500 μM.

For orientation: inhibition means the drop in the measured response relative to a control, in per cent. The LD50 is the dose at which mortality reaches 50%. Read a high LD50 as a less toxic substance.

`COC(=O)CCc1cc(CNC(=O)[C@@H](N)Cc2ccccc2)on1.Cl` [Example 22, Methyl 5-(L-phenylalanylamino)methylisoxazole-3-propionate hydrochloride]: in series [1] (setting [5]), the inhibition at 10 µM came to 15%. Also, in series [2] (setting [6]), the “Stimulation of the 3H-D-aspartate absorption, Stimulation (%)” value (shortened to “Stimulation … (%)”) was 23%.
With `O=C(O)CCC1=NOC(c2ccccn2)C1` (stereo not drawn) [Example 33, 3-(2-Carboxyethyl)-5-(2-pyridyl)-2-isoxazoline], the inhibition at 10 µM in series [1] (setting [5]) amounted to 26%.
On to `O=C(O)CCc1cc(CO)on1` [Example 59, 5-Hydroxylmethyl-isoxazole-3-propionate sodium salt], for which the inhibition at 10 µM in series [1] (setting [7]) was 26%.
Regarding `CC(C)[C@@H]1CC[C@@H](C)C[C@H]1OC(=O)CCc1cc(CN)on1` [Example 8, (-)-menthyl 5-aminomethylisoxazole-3-propionate toluene-4-sulfonate], the inhibition at 10 µM in series [1] (setting [5]) worked out at 30%. Moreover, the “Stimulation … (%)” value in series [2] (preparation concentration 10 μM) is 13%. Further, in series [3] (50 mg/kg p.o.), the “Cell necroses (% change)” value is -46 % change and the “Behavior score (% change)” value is recorded as 0 % change. The molecule also returned a 50% lethal dose (LD50) in series [4] of 50 to 100 mg/kg. The inhibition in vivo at 50 mg/kg in the series with NMDA-induced cramps (setting [8]) amounted to 70%. For the same molecule, the inhibition in vivo at 50 mg/kg in the series on NMDA-induced cramps (setting [9]) was 100%.
For the molecule `CC(C)[C@H]1CC[C@H](C)C[C@@H]1OC(=O)CCc1cc(CN)on1` [Example 7, (+)-menthyl 5-aminomethylisoxazole-3-propionate toluene-4-sulfonate], the inhibition at 10 µM in series [1] (setting [5]) amounted to 28%.
Regarding `NCc1cc(C(=O)O)no1` [Example 1, 3-Carboxy-5-aminomethylisoxazole], in series [1] (setting [5]), the inhibition at 10 µM was determined as 13%. Further, the “Stimulation … (%)” value in series [2] (setting [10]) was found to be 15%. This molecule also yielded an LD50 in series [4] of more than 200 mg/kg. Further, in the series with NMDA-induced cramps (63 mg/kg p.o., one hour before NMDA i.v., change compared to control group, read-out: Inhibition of convulsions), the inhibition in vivo at 63 mg/kg is 50%.
Regarding `CC(C)[C@@H]1CC[C@@H](C)C[C@H]1OC(=O)CCc1cc(C[N+](C)(C)C)on1` [Example 18, (-)-Menthyl 5-trimethylammoniomethylisoxazole-3-propionate iodide], the inhibition at 10 µM in series [1] (setting [5]) amounted to 22%. In series [2] (setting [6]), the “Stimulation … (%)” value turned out to be 46%. In series [3] (50 mg/kg p.o.), the “Cell necroses (% change)” value is listed as -23 % change and the “Behavior score (% change)” value is on record as “+15 % change”.
Regarding `CC(C)[C@H]1CC[C@H](C)C[C@@H]1OC(=O)CCc1cc(CNC(=O)[C@@H](N)Cc2ccccc2)on1` [Example 20, (+)-Menthyl 5-(L-phenylalanylamino)methylisoxazole-3propionate hydrochloride], the inhibition at 10 µM in series [1] (setting [5]) turned out to be 18%. Moreover, in series [4], the LD50 was in the range of 25 to 50 mg/kg. Further, the inhibition in vivo at 50 mg/kg was 10% in the series on NMDA-induced cramps (setting [8]) and 100% with NMDA-induced cramps (setting [9]).
As for `COC(=O)CCC1CC(CN)=NO1` (stereo not drawn) [Example 34, Methyl 3-aminomethyl-2-isoxazoline-5-propionate toluene-4-sulfonate], the inhibition at 10 µM in series [1] (setting [7]) turned out to be 9%.
Turning to `NCc1cc(CCC(=O)O)no1` [Example 12, 5-Aminomethylisoxazole-3-propionic acid], the “Stimulation … (%)” value in series [2] (setting [10]) came out at 17%. Besides, the “Cell necroses (% change)” value in series [3] (10 mg/kg i.p.) is reported as -32 % change; in series [3] (50 mg/kg p.o.), -14 % change. For the same molecule, the “Behavior score (% change)” value in series [3] (10 mg/kg i.p.) and in series [3] (50 mg/kg p.o.) was 0 % change in each case. The LD50 in series [4] is more than 100 mg/kg. Also, the figures for the inhibition in vivo at 50 mg/kg with NMDA-induced cramps (setting [8]) and in the series on NMDA-induced cramps (setting [9]) were 45% and 60%, respectively.
Consider `O=C(O)C1=NOC(C(=O)O)C1` (stereo not drawn) [Example 56, 3,5-dicarboxyl-2-isoxazoline], for which the inhibition at 10 µM in series [1] (setting [5]) was 11%. In addition, in series [2] (setting [10]), the “Stimulation … (%)” value is listed as 17%.
Take `NCc1cc(=O)[nH]o1` [Muscimol, 5-(aminomethyl)-3(2H)-isoxazolone, reference compound]: in series [3] (5 mg/kg i.p.), the “Cell necroses (% change)” value was -74 % change and the “Behavior score (% change)” value is given as “+41 % change”. Also, in series [3] (summary of Table 7), the “post-ischemic neurological symptoms, behavior score (in words)” value was “distinctly more negative post-ischemic symptoms in the behavior score” and the “protection of cerebral nerve cells / dying cells (in words)” value is recorded as “reduction in the dying cells”. In series [4], the 50% lethal dose (LD50) lay in the range of 3 to 10 mg/kg. Also, the inhibition in vivo at 0.3 mg/kg in the series on NMDA-induced cramps (one hour before NMDA i.v., change compared to control group, read-out: Inhibition of convulsions) was 40%. The inhibition in vivo at 0.3 mg/kg in the series on NMDA-induced cramps (one hour before NMDA i.v., change compared to control group, read-out: Inhibition of mortality) is 60%.
